Assay results published in patent US20080132539A1, “Hydroxamic Acid Derivative And Age Generation Inhibitor Containing The Derivative” (priority 2003, published 2008).

Test system: Maillard reaction (lysozyme / fructose, dimer formation)
Assay: Maillard reaction-inhibiting effects (lysozyme dimer formation with fructose, SDS-PAGE densitometry)
Format: biochemical
Settings: 10 mg/mL lysozyme, 200 mM fructose, pH 7.4, 37° C., 4 days, dimer formation inhibition rate
Method: This Example examined Maillard reaction-inhibiting effects using, as test compounds, the compounds produced in the above-described Examples and the commercially available substances arginine hydroxamate (Compound No. 111), tyrosine hydroxamate (Compound No. 112), and tryptophan hydroxamate (Compound No. 113). More specifically, 10 mg/mL lysozyme, 200 mM fructose, and each of the above-described test compounds dissolved in a 0.4 mM sodium phosphate buffer (pH 7.4) so as to provide a concentrations of 0.1, 0.3, 1, or 3 mM were incubated at 37° C. for 4 days. After the incubation, the samples were subjected to SDS-PAGE, stained with Coomassie Brilliant Blue R-250, and quantitated for the formed dimmers using a densitometer. The Maillard reaction-inhibiting activity was defined as the dimmer formation inhibition rate of a test compound calculated on the basis that the amount of dimmer is 100% in the absence of the test compound, using, as blank, the amount of dimer in the absence of fructose and the test compound.

[1] = test compound concentration 0.1 mM
[2] = test compound concentration 0.3 mM
[3] = test compound concentration 1 mM
[4] = test compound concentration 3 mM

Structure (SMILES)	Maillard reaction-inhibiting activity (%) [1]	Maillard reaction-inhibiting activity (%) [2]	Maillard reaction-inhibiting activity (%) [3]	Maillard reaction-inhibiting activity (%) [4]
N[C@@H](CCCNC1CCCCC1)C(=O)NO [Compound No. 27, (S)-2-amino-5-cyclohexylaminopentanoic acid hydroxyamide]	1%	7%	32%	100%
Cc1ccc(CN(CCC[C@H](N)C(=O)NO)Cc2ccc(C)cc2)cc1 [Compound No. 28, (S)-2-amino-5-[bis-(4-methyl-benzyl)amino]pentanoic acid hydroxyamide]	100%	100%	100%	100%
Cc1ccc(C(=O)Nc2ccc(C[C@H](N)C(=O)NO)cc2)cc1 [Compound No. 30, (S)-2-amino-3-[4-(4-methylbenzoyl)amino-phenyl]-N-hydroxypropionamide]	56%	74%	80%	92%
CCCCC(=O)Nc1ccc(C[C@H](N)C(=O)NO)cc1 [Compound No. 31, (S)-2-amino-3-(4-valeroylaminophenyl)-N-hydroxypropionamide]	29%	72%	100%	100%
CC(C)(C)C(=O)Nc1ccc(C[C@H](N)C(=O)NO)cc1 [Compound No. 32, (S)-2-amino-3-(4-pivaloylaminophenyl)-N-hydroxypropionamide]	23%	50%	89%	102%
N[C@@H](Cc1ccc(NC(=O)Cc2ccc(F)cc2)cc1)C(=O)NO [Compound No. 33, (S)-2-amino-3-{4-[2-(4-fluorophenyl)acetylamino]-phenyl}-N-hydroxypropionamide]	57%	93%	98%	102%
Cc1ccc(S(=O)(=O)Nc2ccc(C[C@H](N)C(=O)NO)cc2)cc1 [Compound No. 34, (S)-2-amino-3-[4-(toluen-4-ylsulfonylamino)phenyl]-N-hydroxypropionamide]	37%	98%	102%	102%
COC(=O)Nc1ccc(C[C@H](N)C(=O)NO)cc1 [Compound No. 36, (S)-2-amino-3-(4-methoxycarbonylaminophenyl)-N-hydroxypropionamide]	15%	33%	69%	102%
CN(C)NC(=O)c1ccc(C[C@H](N)C(=O)NO)cc1 [Compound No. 37, (S)-2-amino-3-(4-dimethylaminocarbamoyl-phenyl)-N-hydroxypropionamide]	1%	16%	35%	94%
CCCN(CCC)c1ccc(C[C@H](N)C(=O)NO)cc1 [Compound No. 38, (S)-2-amino-3-(4-dipropylamino-1-phenyl)-N-hydroxypropionamide]	100%	100%	100%	100%
N[C@@H](Cc1ccc([N+](=O)[O-])cc1)C(=O)NO [Compound No. 40, (S)-2-amino-3-(4-nitrophenyl)-N-hydroxypropionamide]	37%	49%	96%	100%
CC(C)(C)Cn1c(CC[C@H](N)C(=O)NO)nc2ccccc21 [Compound No. 71, (S)-2-amino-N-hydroxy-4-[1-(2,2-dimethylpropyl)-1H-benzimidazol-2-yl]butyramide]	71%	97%	98%	99%
CC(C)Cn1c(CC[C@H](N)C(=O)NO)nc2ccccc21 [Compound No. 72, (S)-2-amino-N-hydroxy-4-(1-isobutyl-1H-benzimidazol-2-yl)butyramide]	53%	94%	100%	101%
N[C@@H](CCc1nc2ccccc2n1Cc1ccc(F)cc1)C(=O)NO [Compound No. 73, (S)-2-amino-N-hydroxy-4-[1-(4-fluorobenzyl)-1H-benzimidazol-2-yl]butyramide]	94%	98%	98%	100%
CC(C)(C)c1ccc(Cn2c(CC[C@H](N)C(=O)NO)nc3ccccc32)cc1 [Compound No. 74, (S)-2-amino-N-hydroxy-4-[1-(4-t-butylbenzyl)-1H-benzimidazol-2-yl]butyramide]	98%	99%	101%	100%
N[C@@H](CCc1nc2ccccc2n1C1CCCCC1)C(=O)NO [Compound No. 75, (S)-2-amino-N-hydroxy-4-(1-cyclohexyl-1H-benzimidazol-2-yl)butyramide]	82%	100%	100%	100%
N[C@@H](CCc1nc2ccccc2n1C1CCOCC1)C(=O)NO [Compound No. 76, (S)-2-amino-N-hydroxy-4-[1-(tetrahydropyran-4-yl)-1H-benzimidazol-2-yl]butyramide]	13%	65%	95%	98%
Cc1cc2nc(CC[C@H](N)C(=O)NO)n(Cc3ccc(C(C)(C)C)cc3)c2cc1C [Compound No. 85, (S)-2-amino-4-[1-(4-t-butylbenzyl)-5,6-dimethyl-1H-benzimidazol-2-yl]-N-hydroxybutyramide]	99%	100%	98%	98%
CCCn1c(CC[C@H](N)C(=O)NO)nc2cc(C)c(C)cc21 [Compound No. 94, (S)-2-amino-4-(5,6-dimethyl-1-propyl-1H-benzimidazol-2-yl)-N-hydroxybutyramide]	12%	83%	100%	102%
CCCCCn1c(CC[C@H](N)C(=O)NO)nc2cc(Cl)c(Cl)cc21 [Compound No. 96, (S)-2-amino-4-(5,6-dichloro-1-pentyl-1H-benzimidazol-2-yl)-N-hydroxybutyramide]	99%	103%	104%	104%
CCCn1c(CC[C@H](NCC2CCCCC2)C(=O)NO)nc2ccccc21 [Compound No. 97, (S)-2-(cyclohexylmethyl-amino)-4-(1-propyl-1H-benzimidazol-2-yl)-N-hydroxybutyramide]	96%	98%	98%	98%
CC(C)(C)c1ccc(COc2ccc(C[C@H](N)C(=O)NO)cc2)cc1 [Compound No. 99, (S)-2-amino-3-[4-(4-t-butylbenzyloxy)phenyl]-N-hydroxypropionamide]	95%	95%	99%	101%
N[C@@H](Cc1ccc(OCc2ccccc2-c2ccccc2)cc1)C(=O)NO [Compound No. 100, (S)-2-amino-3-[4-(2-phenylbenzyloxy)phenyl]-N-hydroxypropionamide]	93%	96%	96%	97%
N[C@@H](Cc1ccc(OCc2ccc([N+](=O)[O-])cc2)cc1)C(=O)NO [Compound No. 101, (S)-2-amino-3-[4-(4-nitrobenzyloxy)phenyl]-N-hydroxypropionamide]	102%	102%	102%	98%
N[C@@H](Cc1ccc(OCc2ccc(F)cc2F)cc1)C(=O)NO [Compound No. 102, (S)-2-amino-3-[4-(2,4-difluorobenzyloxy)phenyl]-N-hydroxypropionamide]	78%	88%	94%	95%
